Assay results from PubChem BioAssay (NCI).
Where “and” joins values, the source holds several entries; their conditions need not be identical. Equal entries are not always repeated.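 Cells were grown in 96-well plates and exposed to each compound for 48 hours at five concentrations; endpoints were interpolated linearly between bracketing concentrations, or set to the highest concentration if not reached. GI50 = concentration required for 50% inhibition of growth. The concentration for full growth arrest is given as TGI.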

How the values were obtained:
Experiment in all cases: NCI tumour cell line growth inhibition, 48 h
M14 melanoma = system: M14 melanoma
MALME-3M melanoma = system: MALME-3M melanoma
RPMI-8226 leukemia = system: RPMI-8226 leukemia
K-562 leukemia = system: K-562 leukemia
HCT-15 colon = system: HCT-15 colon
SNB-75 CNS = system: SNB-75 CNS
UACC-257 melanoma = system: UACC-257 melanoma
HS 578T breast = system: HS 578T breast
PC-3 prostate = system: PC-3 prostate
KM12 colon = system: KM12 colon
ACHN renal = system: ACHN renal
U251 CNS = system: U251 CNS
SK-OV-3 ovarian = system: SK-OV-3 ovarian
DU-145 prostate = system: DU-145 prostate
BT-549 breast = system: BT-549 breast
SF-295 CNS = system: SF-295 CNS
MDA-MB-231 breast = system: MDA-MB-231 breast
OVCAR-8 ovarian = system: OVCAR-8 ovarian
CAKI-1 renal = system: CAKI-1 renal
MCF7 breast = system: MCF7 breast
SK-MEL-5 melanoma = system: SK-MEL-5 melanoma
A498 renal = system: A498 renal
SF-539 CNS = system: SF-539 CNS
HCC-2998 colon = system: HCC-2998 colon
RXF 393 renal = system: RXF 393 renal
CCRF-CEM leukemia = system: CCRF-CEM leukemia
OVCAR-4 ovarian = system: OVCAR-4 ovarian
HL-60(TB) leukemia = system: HL-60(TB) leukemia
UO-31 renal = system: UO-31 renal
UACC-62 melanoma = system: UACC-62 melanoma
SK-MEL-28 melanoma = system: SK-MEL-28 melanoma
IGROV1 ovarian = system: IGROV1 ovarian
TK-10 renal = system: TK-10 renal
MOLT-4 leukemia = system: MOLT-4 leukemia
NCI-H460 lung = system: NCI-H460 lung
SF-268 CNS = system: SF-268 CNS
NCI-H23 lung = system: NCI-H23 lung
SW-620 colon = system: SW-620 colon
OVCAR-5 ovarian = system: OVCAR-5 ovarian
MDA-N = system: MDA-N
EKVX NSCLC = system: EKVX NSCLC
NCI/ADR-RES ovarian = system: NCI/ADR-RES ovarian
SK-MEL-2 melanoma = system: SK-MEL-2 melanoma
COLO 205 colon = system: COLO 205 colon
OVCAR-3 ovarian = system: OVCAR-3 ovarian
MDA-MB-435 = system: MDA-MB-435
HT29 colon = system: HT29 colon
SR leukemia = system: SR leukemia
T-47D breast = system: T-47D breast
786-0 renal = system: 786-0 renal
HCT-116 colon = system: HCT-116 colon
A549 NSCLC = system: A549 NSCLC
NCI-H226 lung = system: NCI-H226 lung
NCI-H522 lung = system: NCI-H522 lung
SN12C renal = system: SN12C renal
SNB-19 CNS = system: SNB-19 CNS
LOX IMVI melanoma = system: LOX IMVI melanoma
HOP-62 NSCLC = system: HOP-62 NSCLC
HOP-92 NSCLC = system: HOP-92 NSCLC
SNB-78 CNS = system: SNB-78 CNS
KM20L2 colon = system: KM20L2 colon
HOP-18 NSCLC = system: HOP-18 NSCLC

Compound: CC1(C)CCc2c(c(N=Nc3ccc(F)cc3)c3ccccc3c2O)O1
- TGI (M14 melanoma): 39.9 µM
- TGI (MALME-3M melanoma): 68.5 µM
- TGI (RPMI-8226 leukemia): > 100 µM
- TGI (K-562 leukemia): > 100 µM
- TGI (HCT-15 colon): > 100 µM
- TGI (SNB-75 CNS): 48.6 µM
- TGI (UACC-257 melanoma): 41.1 µM
- TGI (HS 578T breast): > 100 µM
- TGI (PC-3 prostate): > 100 µM
- TGI (KM12 colon): > 100 µM
- TGI (ACHN renal): > 100 µM
- TGI (U251 CNS): > 100 µM
- TGI (SK-OV-3 ovarian): > 100 µM
- TGI (DU-145 prostate): 35.8 µM
- TGI (BT-549 breast): > 100 µM
- TGI (SF-295 CNS): 49.8 µM
- TGI (MDA-MB-231 breast): > 100 µM
- TGI (OVCAR-8 ovarian): > 100 µM
- TGI (CAKI-1 renal): > 100 µM
- TGI (MCF7 breast): > 100 µM
- TGI (SK-MEL-5 melanoma): 21.1 µM
- TGI (A498 renal): 88.8 µM
- TGI (SF-539 CNS): > 100 µM
- TGI (HCC-2998 colon): 42.8 µM
- TGI (RXF 393 renal): > 100 µM
- TGI (CCRF-CEM leukemia): 41 µM
- TGI (OVCAR-4 ovarian): > 100 µM
- TGI (HL-60(TB) leukemia): 65.1 µM
- TGI (UO-31 renal): > 100 µM
- TGI (UACC-62 melanoma): 31.3 µM
- TGI (SK-MEL-28 melanoma): > 100 µM
- TGI (IGROV1 ovarian): > 100 µM
- TGI (TK-10 renal): > 100 µM
- TGI (MOLT-4 leukemia): > 100 µM
- TGI (NCI-H460 lung): 63.4 µM
- TGI (SF-268 CNS): > 100 µM
- TGI (NCI-H23 lung): > 100 µM
- TGI (SW-620 colon): > 100 µM
- TGI (OVCAR-5 ovarian): > 100 µM
- TGI (MDA-N): 31.5 µM
- TGI (EKVX NSCLC): 97 µM
- TGI (NCI/ADR-RES ovarian): > 100 µM
- TGI (SK-MEL-2 melanoma): 93 µM
- TGI (COLO 205 colon): > 100 µM
- TGI (OVCAR-3 ovarian): 70.8 µM
- TGI (MDA-MB-435): 32 µM
- TGI (HT29 colon): 44.1 µM
- TGI (SR leukemia): 77.4 µM
- TGI (T-47D breast): 86.8 µM
- TGI (786-0 renal): > 100 µM
- TGI (HCT-116 colon): > 100 µM
- TGI (A549 NSCLC): 32.2 µM
- TGI (NCI-H226 lung): > 100 µM
- TGI (NCI-H522 lung): > 100 µM
- TGI (SN12C renal): > 100 µM
- TGI (SNB-19 CNS): > 100 µM
- TGI (LOX IMVI melanoma): 47.3 µM
- TGI (HOP-62 NSCLC): 57.3 µM
- TGI (HOP-92 NSCLC): > 100 µM

Compound: COc1ccc(/C=C\c2cc(OC)c(OC)c(OC)c2)cc1O
- GI50 (SNB-78 CNS): 0.00409 µM and < 0.001 µM
- TGI (SNB-78 CNS): > 100 µM
- TGI (HS 578T breast): 8.09 µM
- TGI (SK-OV-3 ovarian): < 0.031 µM
- TGI (BT-549 breast): > 100 µM
- TGI (CAKI-1 renal): 13.9 µM and > 59.5 µM
- TGI (KM20L2 colon): 8.28 µM and 16.2 µM
- TGI (HCC-2998 colon): 1.22 µM and 2.38 µM
- GI50 (OVCAR-4 ovarian): 6.58 µM
- TGI (UO-31 renal): > 88.6 µM
- GI50 (SK-MEL-28 melanoma): 3.16 µM
- GI50 (TK-10 renal): 2.63 µM and 0.567 µM
- TGI (TK-10 renal): 4.16 µM
- GI50 (OVCAR-5 ovarian): 4.27 µM
- TGI (OVCAR-5 ovarian): 78.6 µM and > 91.4 µM
- TGI (EKVX NSCLC): 82.1 µM
- GI50 (COLO 205 colon): 2.49 µM
- TGI (COLO 205 colon): 43.3 µM and 22.1 µM
- TGI (HOP-18 NSCLC): > 100 µM
- GI50 (HT29 colon): 0.664 µM
- TGI (HT29 colon): 9.28 µM and > 44.9 µM
- GI50 (T-47D breast): 48 µM
- TGI (T-47D breast): 91.2 µM
- TGI (786-0 renal): 25.5 µM
